Data on one compound can be found in patent US20150167062A1, “Genome-wide Method of Assessing Interactions Between Chemical Entities And Their Target Molecules” (Whitehead Institute for Biomedical Research, priority 2012, published 2015).

The test system of the experiment is MM1.S cells, merged BRD4/JQ1 genomic regions. Kind of experiment: Specificity analysis: overlap between JQ1 Chem-Seq and BRD4 ChIP-Seq data. Type of experiment: binding, human. As for the experimental part:
Chemical crosslinking was terminated by addition of TRIS buffer, pH 7.5, to a final concentration of 300 mM TRIS. Cells were harvested using a silicon scraper, centrifuged and the derived pellets washed three times with PBS. Cell nuclei were prepared as follows: cells were lysed in 50 mM HEPES, pH 7.5, 140 mM NaCl, 1 mM EDTA, 10% Glycerol, 0.5% NP-40, 0.25% Triton X-100 plus protease inhibitor cocktail ‘complete’ (Roche), and cell nuclei were washed once with 10 mM Tris-HCL, pH 8.0, 200 mM NaCl, 1 mM EDTA, 0.5 mM EGTA and protease inhibitors. […] Finally, purified DNA fragments were massively parallel sequenced and the sequencing data analyzed as described (33). […]
All ChIP-Seq and Chem-seq datasets were aligned using Bowtie (version 0.12.2) (35) to build version NCBI36/HG18 of the human genome. […] To obtain the normalized read density of ChIP-Seq datasets in any region, ChIP-Seq reads aligning to the region were extended automatically by MACS and the density of reads per basepair (bp) was calculated. The density of reads in each region was normalized to the total number of million mapped reads producing read density in units of reads per million mapped reads per by (rpm/bp).
Chem-Seq and ChIP-Seq data was analyzed to identify genomic regions with substantial JQ 1 Chem-Seq signal but no significant BRD4 ChIP-Seq signal, reasoning these sites might represent off-target interactions of JQ1. […]

In the case of `Cc1sc2c(c1C)C(c1ccc(Cl)cc1)=N[C@@H](CC(=O)OC(C)(C)C)c1nnc(C)n1-2` [JQ1], under “MM1.S cells, GLM differential binding analysis”, the “Off-target interaction (JQ1 Chem-Seq signal at regions of the genome without BRD4)” value is given as “no identifiable off-target interaction”. Also, the “Genomic regions with significant differences in JQ1 Chem-Seq and BRD4 ChIP-Seq signals” value (out of 25,060 merged regions, FDR<=0.25, MM1.S cells) amounted to 10 regions.
